Structures can show the parent of a compound that is named as a salt.
What was measured:
NHE3 [1] = target: T1, NHE3 (Homo sapiens, UniProt P48764); assay: Cell-based assay of NHE-3 activity (pre-incubation inhibition), human; conditions: human Preincubation; for pIC50: 0-30 μM test compound
T1 construct: expressed in transfected cells
T1 sequence (P48764 26-834): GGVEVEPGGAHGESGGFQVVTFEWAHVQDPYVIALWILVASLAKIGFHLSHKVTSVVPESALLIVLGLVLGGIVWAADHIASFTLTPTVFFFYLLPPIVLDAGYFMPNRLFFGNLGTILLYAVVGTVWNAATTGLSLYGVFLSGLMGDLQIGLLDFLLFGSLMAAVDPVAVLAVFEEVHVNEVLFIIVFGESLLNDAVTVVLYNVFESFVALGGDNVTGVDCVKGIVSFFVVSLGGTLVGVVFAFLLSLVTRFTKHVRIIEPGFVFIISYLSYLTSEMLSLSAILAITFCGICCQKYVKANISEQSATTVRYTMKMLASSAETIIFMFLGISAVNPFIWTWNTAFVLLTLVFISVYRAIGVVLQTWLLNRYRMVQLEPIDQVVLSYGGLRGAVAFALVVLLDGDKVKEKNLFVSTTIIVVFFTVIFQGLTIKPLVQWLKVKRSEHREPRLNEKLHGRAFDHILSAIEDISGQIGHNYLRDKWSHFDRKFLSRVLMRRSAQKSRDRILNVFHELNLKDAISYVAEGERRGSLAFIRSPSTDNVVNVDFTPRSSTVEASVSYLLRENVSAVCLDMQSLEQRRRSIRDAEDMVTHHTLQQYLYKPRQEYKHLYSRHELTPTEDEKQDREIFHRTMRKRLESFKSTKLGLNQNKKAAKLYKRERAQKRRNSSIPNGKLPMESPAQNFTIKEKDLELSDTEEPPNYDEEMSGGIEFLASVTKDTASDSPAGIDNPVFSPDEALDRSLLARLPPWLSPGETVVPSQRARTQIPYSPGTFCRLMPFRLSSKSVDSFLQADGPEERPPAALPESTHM
T1 sequence (Q99653 2-195 partner limits assumed): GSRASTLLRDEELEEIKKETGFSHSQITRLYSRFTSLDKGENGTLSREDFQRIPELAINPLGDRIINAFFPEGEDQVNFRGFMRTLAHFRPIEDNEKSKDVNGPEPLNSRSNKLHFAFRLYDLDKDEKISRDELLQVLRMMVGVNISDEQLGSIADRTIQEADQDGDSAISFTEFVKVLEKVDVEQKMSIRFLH
Procedure: Rat and human NHE-3-mediated Na^+-dependent H^+ antiport was measured using a modification of the pH sensitive dye method originally reported by Paradiso (Proc. Natl. Acad. Sci. USA. (1984) 81(23): 7436-7440). PS120 fibroblasts stably expressing human NHE3 and NHERF2 were obtained from Mark Donowitz (Baltimore, Md.). Opossum kidney (OK) cells were obtained from the ATCC and propagated per their instructions. The rat NHE-3 gene (GenBank M85300) was introduced into OK cells via electroporation, and cells were seeded into 96 well plates and grown overnight. Medium was aspirated from the wells then incubated for 30 min at 37° C. with NH4Cl-HEPES buffer (20 mM NH4Cl, 80 mM NaCl, 50 mM HEPES, 5 mM KCl, 2 mM CaCl2, 1 mM MgCl2, pH 7.4) containing 5 μM BCECF-AM. Cells were washed once with Ammonium free, Na^+-free HEPES (100 mM choline, 50 mM HEPES, 10 mM glucose, 5 mM KCl, 2 mM CaCl2, 1 mM MgCl2, pH 7.4) and incubated in the same buffer for 10 minutes at room temperature to lower intracellular pH with 0-30 μM test compound. […] Changes in intracellular pH were monitored using a FLIPR Tetra® (Molecular Devices, Sunnyvale, Calif.) by excitation at λex 439 to 505 nm, and measuring BCECF fluorescence at λem 538 nm. The initial rate of the fluorescence ratio change was used as a measure of NHE-mediated Na^+/H^+ activity, and reported as the change in fluorescence ratio per minute.

NHE3 [2] = target: T1, NHE3; assay: Cell-based assay of NHE-3 activity (persistent inhibition), human; conditions: human Persistence, 60 min incubation then washout
Procedure: The ability of compounds to inhibit human and rat NHE-3-mediated Na^+ dependent H^+ antiport after application and washout was measured using a modification of the pH sensitive dye method described above. PS120 fibroblasts stably expressing human NHE3 and NHERF2 were obtained from Mark Donowitz (Baltimore, Md.). Opossum kidney (OK) cells were obtained from the ATCC and propagated per their instructions. The rat NHE-3 gene was introduced into OK cells via electroporation, and cells were seeded into 96 well plates and grown overnight. Medium was aspirated from the wells, cells were washed once with NaCl-HEPES buffer (100 mM NaCl, 50 mM HEPES, 10 mM glucose, 5 mM KCl, 2 mM CaCl2, 1 mM MgCl2, pH 7.4), then overlayed with NaCl-HEPES buffer containing 0-30 μM test compound. After a 60 min incubation at room temperature, the test drug containing buffer was aspirated from the cells. Following aspiration, cells were washed once with NaCl-HEPES buffer without drug, then incubated for 30 min at 37° C. with NH4Cl-HEPES buffer (20 mM NH4Cl, 80 mM NaCl, 50 mM HEPES, 5 mM KCl, 2 mM CaCl2, 1 mM MgCl2, pH 7.4) containing 5 μM BCECF-AM. Cells were washed once with Ammonium free, Na^+-free HEPES (100 mM choline, 50 mM HEPES, 10 mM glucose, 5 mM KCl, 2 mM CaCl2, 1 mM MgCl2, pH 7.4) and incubated in the same buffer for 10 minutes at room temperature to lower intracellular pH. NHE-3-mediated recovery of neutral intracellular pH was initiated (10 min after compound washout) by addition of Na-HEPES buffer. […] Changes in intracellular pH were monitored using a FLIPR Tetra® (Molecular Devices, Sunnyvale, Calif.) by excitation at λex 439 to 505 nm, and measuring BCECF fluorescence at λem 538 nm. The initial rate of the fluorescence ratio change was used as a measure of NHE-mediated Na^+/H^+ activity, and reported as the change in fluorescence ratio per minute.

| Structure (SMILES) | % inhibition (NHE3 [1]) | % inhibition (NHE3 [2]) | pIC50 (NHE3 [1]) | IC50 (NHE3 [2]) [nM] | pIC50 (NHE3 [2]) |
| --- | --- | --- | --- | --- | --- |
| CN(C)[C@@H]1CCCN([C@H]2Cc3c(Cl)cc(Cl)cc3[C@@H]2Oc2ccc(S(=O)(=O)NCCOCCOCCNC(=O)NCCCCNC(=O)NCCOCCOCCNS(=O)(=O)c3ccc(O[C@H]4c5cc(Cl)cc(Cl)c5C[C@@H]4N4CCC[C@@H](N(C)C)C4)cc3)cc2)C1 [Example 25] | C (>70%) | C (>70%) |  |  |  |
| Cc1cc(S(=O)(=O)NCCOCCOCCNC(=O)NCCCCNC(=O)NCCOCCOCCNS(=O)(=O)c2cc(C)c(O[C@H]3c4cc(Cl)cc(Cl)c4C[C@@H]3N3CCC[C@@H](N)C3)c(F)c2)cc(F)c1O[C@H]1c2cc(Cl)cc(Cl)c2C[C@@H]1N1CCC[C@@H](N)C1 [Example 83, 1-[2-(2-[2-[(4-[[(1S,2S)-2-[(3R)-3-Aminopiperidin-1-yl]-4,6-dichloro-2,3-dihydro-1H-inden-1-yl]oxy]-3-fluoro-5-methylbenzene)sulfonamido]ethoxy]ethoxy)ethyl]-3-[4-([[2-(2-[2-[(4-[[(1S,2S)-2-[(3R)-3-aminopiperidin-1-yl]-4,6-dichloro-2,3-dihydro-1H-inden-1-yl]oxy]-3-fluoro-5-methylbenzene)sulfonamido]ethoxy]ethoxy)ethyl]carbamoyl]amino)butyl]urea; hydrochloride] | C (>70%) | C (>70%) | C (NHE3 pIC50 > 7) | 100 to 1000 |  |

Other lines, results leading:

| % inhibition (NHE3 [1]) | % inhibition (NHE3 [2]) | pIC50 (NHE3 [1]) | IC50 (NHE3 [2]) [nM] | pIC50 (NHE3 [2]) | Structure (SMILES) |
| --- | --- | --- | --- | --- | --- |
| A (NHE3 < 40%) | A (NHE3 < 40%) |  |  |  | Cc1cc(S(=O)(=O)NCCOCCOCCNC(=O)NCCCCNC(=O)NCCOCCOCCNS(=O)(=O)c2ccc(O[C@H]3c4cc(Cl)cc(C#N)c4C[C@@H]3N3CCC[C@@H](N)C3)c(C)c2)ccc1O[C@H]1c2cc(Cl)cc(C#N)c2C[C@@H]1N1CCC[C@@H](N)C1 [Example 8, 3-[2-(2-[2-[(4-[[(1S,2S)-2-[(3R)-3-Aminopiperidin-1-yl]-6-chloro-4-cyano-2,3-dihydro-1H-inden-1-yl]oxy]-3-methylbenzene)sulfonamido]ethoxy]ethoxy)ethyl]-1-[4-([[2-(2-[2-[(4-[[(1S,2S)-2-[(3R)-3-aminopiperidin-1-yl]-6-chloro-4-cyano-2,3-dihydro-1H-inden-1-yl]oxy]-3-methylbenzene)sulfonamido]ethoxy]ethoxy)ethyl]carbamoyl]amino)butyl]urea; bis(trifluoroacetic acid)] |
| B (40-70%) | B (40-70%) | C (NHE3 pIC50 > 7) |  | C (NHE3 pIC50 > 7) | CN(C)[C@H]1Cc2c(C#N)cc(Cl)cc2[C@@H]1Oc1ccc(S(=O)(=O)NCCOCCOCCNC(=O)NCCCCNC(=O)NCCOCCOCCNS(=O)(=O)c2ccc(O[C@H]3c4cc(Cl)cc(C#N)c4C[C@@H]3N(C)C)c(F)c2)cc1F [Example 37, 3-[2-(2-[2-[(4-[[(1S,2S)-6-Chloro-4-cyano-2-(dimethylamino)-2,3-dihydro-1H-inden-1-yl]oxy]-3-fluorobenzene)sulfonamido]ethoxy]ethoxy)ethyl]-1-[4-([[2-(2-[2-[(4-[[(1S,2S)-6-chloro-4-cyano-2-(dimethylamino)-2,3-dihydro-1H-inden-1-yl]oxy]-3-fluorobenzene)sulfonamido]ethoxy]ethoxy)ethyl]carbamoyl]amino)butyl]urea] |
|  |  | C (NHE3 pIC50 > 7) |  | C (NHE3 pIC50 > 7) | NC1CCCN(C2Cc3c(Cl)cc(Cl)cc3C2Oc2ccc(S(=O)(=O)NCCOCCOCCn3cc(CNC(=O)C(O)C(O)C(O)C(O)C(=O)NCc4cn(CCOCCOCCNS(=O)(=O)c5ccc(OC6c7cc(Cl)cc(Cl)c7CC6N6CCCC(N)C6)cc5)nn4)nn3)cc2)C1 [Example 57, (2R,3S,4R,5S)—N^1,N^6-Bis([1-[2-(2-[2-[(4-[[(1S,2S)-2-[(3R)-3-aminopiperidin-1-yl]-4,6-dichloro-2,3-dihydro-1H-inden-1-yl]oxy]benzene)sulfonamido]ethoxy]ethoxy)ethyl]-1H-1,2,3-triazol-4-yl]methyl)-2,3,4,5-tetrahydroxyhexanediamide] |
